This note sets out measurements from ChEMBL document CHEMBL1137017, “In vitro antiviral activity and cross-resistance profile of PL-100, a novel protease inhibitor of human immunodeficiency virus type 1” (Antimicrob Agents Chemother, 2007).

Data set [1] concerns Human immunodeficiency virus 1. Put plainly: Antiviral activity against wild type HIV1 NL4-3 infected in MT4 cells after 6 days by MTT assay. Particulars: Human immunodeficiency virus 1, NL4-3, MT4, 144 h. The class given is functional, organism-based. In general terms: Formazan colour is commonly taken as a measure of viable cells.
A short description of data set [2]: Cytotoxicity against human MT4 cells after 6 days by MTT assay. The class given is cell-based.
In data set [3] the test system is Human immunodeficiency virus 1. The data set can be described thus: Antiviral activity against wild type HIV1 NL4-3 in HEK293 cells after 48 hrs by replication-deffective luciferase reporter gene-based phenotypic assay. The class given is functional, organism-based. Particulars: Human immunodeficiency virus 1, NL4-3, HEK293, 48 h. On the technique in general: Reporter assays use an easily measured gene product as a stand-in for the process of interest.

A further data set deals with Protease (Human immunodeficiency virus 1, UniProt Q9YQ12). The data set can be described thus: Inhibition of HIV1 protease.
For a further data set, the target named is Cathepsin D (Homo sapiens, UniProt P07339). The data set can be described thus: Inhibition of human cathepsin D.
A short description of data set [4]: Inhibition of pig pepsin. Also on record: species or system Sus scrofa.

Cathepsin D, sequence (P07339 65-162 limits assumed): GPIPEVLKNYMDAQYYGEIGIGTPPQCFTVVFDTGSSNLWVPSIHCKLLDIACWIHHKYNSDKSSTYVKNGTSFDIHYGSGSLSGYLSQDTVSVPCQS
Cathepsin D, sequence (P07339 169-412 limits assumed): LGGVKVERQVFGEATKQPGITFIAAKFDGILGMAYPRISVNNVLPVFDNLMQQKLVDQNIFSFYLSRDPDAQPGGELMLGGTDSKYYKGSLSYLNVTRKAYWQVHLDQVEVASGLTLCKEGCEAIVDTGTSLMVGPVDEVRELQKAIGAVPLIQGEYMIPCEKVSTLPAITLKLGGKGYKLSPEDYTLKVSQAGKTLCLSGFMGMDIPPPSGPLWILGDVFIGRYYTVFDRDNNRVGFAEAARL
Protease, sequence (Q9YQ12 whole entry): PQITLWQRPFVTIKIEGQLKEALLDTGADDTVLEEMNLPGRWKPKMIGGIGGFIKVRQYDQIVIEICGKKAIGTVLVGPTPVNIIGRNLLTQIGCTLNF

For the compound `CC(C)(C)NC(=O)[C@@H]1C[C@@H]2CCCC[C@@H]2CN1C[C@@H](O)[C@H](Cc1ccccc1)NC(=O)[C@H](CC(N)=O)NC(=O)c1ccc2ccccc2n1`, the EC50 in data set [1] turned out to be 12 nM; in data set [3], 1.8 nM. Moreover, in data set [2], half-maximal cytotoxicity (CC50 at 144 h) was put at 19000 nM.
On Protease, `CC(C)CN(C[C@@H](O)[C@H](Cc1ccccc1)NC(=O)O[C@H]1CCOC1)S(=O)(=O)c1ccc(N)cc1` registered a Ki of 0.117 nM. Further, the EC50 was determined as 51 nM in data set [1] and 10.7 nM in data set [3]. Further, the CC50 at 144 h in data set [2] is > 100000 nM. In addition, the IC50 came out at 15200 nM at Cathepsin D and 280 nM in data set [4].
`CC(C)(C)NC(=O)[C@@H]1CN(Cc2cccnc2)CCN1C[C@@H](O)C[C@@H](Cc1ccccc1)C(=O)N[C@H]1c2ccccc2C[C@H]1O`: the EC50 in data set [1] was found to be 67 nM; in data set [3] it was 7.8 nM. In addition, in data set [2], the CC50 at 144 h was > 100000 nM.
Regarding `Cc1cccc(C)c1OCC(=O)N[C@@H](Cc1ccccc1)[C@@H](O)C[C@H](Cc1ccccc1)NC(=O)[C@H](C(C)C)N1CCCNC1=O` [LOPINAVIR], the values for the EC50 in data set [1] and in data set [3] were 19 nM and 2.8 nM, respectively. The CC50 at 144 h in data set [2] was determined as 28000 nM.
Consider `CC(C)c1nc(CN(C)C(=O)N[C@H](C(=O)N[C@@H](Cc2ccccc2)C[C@H](O)[C@H](Cc2ccccc2)NC(=O)OCc2cncs2)C(C)C)cs1` [RITONAVIR], for which, in data set [1], the EC50 turned out to be 61 nM.

The EC50 is the concentration needed to bring the measured effect to its halfway point. Broadly, the CC50 is the concentration giving 50% cytotoxicity. Read a high CC50 as better tolerance by the cells. A word on the Ki: it is a measure of affinity in units of concentration, obtained from inhibition or displacement. Lower therefore signals a stronger hold on the target. A word on the IC50: it is the point on the concentration scale where inhibition reaches its midpoint.
